The results in this text go back to ChEMBL document CHEMBL3045814, “Antifungal activity of Hinokitiol-related compounds on wood-rotting fungi and their insecticidal activities” (2000).

Format in all cases: functional
The test system of experiment [1] is Coptotermes formosanus. Briefly: Insecticidal activity against Coptotermes formosanus assessed as mortality at 0.05 g/m2 after 48 hr relative to control.
In experiment [2] the test system is Coptotermes formosanus. In words: Insecticidal activity against Coptotermes formosanus assessed as mortality at 0.1 g/m2 after 48 hr relative to control.
The test system of experiment [3] is Coptotermes formosanus. In words: Insecticidal activity against Coptotermes formosanus assessed as mortality at 0.2 g/m2 after 48 hr relative to control.
Experiment [4] relates to Coptotermes formosanus. Briefly: Insecticidal activity against Coptotermes formosanus assessed as mortality at 1 g/m2 after 48 hr relative to control.
Experiment [5] deals with Coptotermes formosanus. In words: Insecticidal activity against Coptotermes formosanus assessed as mortality at 0.01 g/m2 after 24 hr relative to control.
Experiment [6] concerns Coptotermes formosanus. Briefly: Insecticidal activity against Coptotermes formosanus assessed as mortality at 0.05 g/m2 after 24 hr relative to control.
For experiment [7], the system named is Coptotermes formosanus. In words: Insecticidal activity against Coptotermes formosanus assessed as mortality at 0.02 g/m2 after 24 hr relative to control.
The subject of experiment [8] is Coptotermes formosanus. In words: Insecticidal activity against Coptotermes formosanus assessed as mortality at 0.1 g/m2 after 24 hr relative to control.
Experiment [9] has as its system Coptotermes formosanus. Briefly: Insecticidal activity against Coptotermes formosanus assessed as mortality at 0.2 g/m2 after 24 hr relative to control.
Experiment [10] deals with Coptotermes formosanus. In words: Insecticidal activity against Coptotermes formosanus assessed as mortality at 1 g/m2 after 24 hr relative to control.
The test system of experiment [11] is Tyrophagus putrescentiae. Briefly: Insecticidal activity against Tyrophagus putrescentiae assessed as mortality after 24 hr by clip method.
Experiment [12] relates to Coptotermes formosanus. Briefly: Insecticidal activity against Coptotermes formosanus assessed as mortality after 24 to 48 hr.
Experiment [13] deals with Coptotermes formosanus. In words: Insecticidal activity against Coptotermes formosanus assessed as mortality at 0.01 g/m2 after 48 hr relative to control.
The subject of experiment [14] is Coptotermes formosanus. In words: Insecticidal activity against Coptotermes formosanus assessed as mortality at 0.02 g/m2 after 48 hr relative to control.
For experiment [15], the system named is Tyrophagus putrescentiae. In words: Insecticidal activity against Tyrophagus putrescentiae assessed as mortality at 0.01 g/m2 after 24 hr by clip method relative to control.
Experiment [16] relates to Tyrophagus putrescentiae. In words: Insecticidal activity against Tyrophagus putrescentiae assessed as mortality at 0.02 g/m2 after 24 hr by clip method relative to control.
Experiment [17] deals with Tyrophagus putrescentiae. In words: Insecticidal activity against Tyrophagus putrescentiae assessed as mortality at 0.05 g/m2 after 24 hr by clip method relative to control.
For experiment [18], the system named is Tyrophagus putrescentiae. Briefly: Insecticidal activity against Tyrophagus putrescentiae assessed as mortality at 0.1 g/m2 after 24 hr by clip method relative to control.
In experiment [19] the test system is Tyrophagus putrescentiae. In words: Insecticidal activity against Tyrophagus putrescentiae assessed as mortality at 0.2 g/m2 after 24 hr by clip method relative to control.
The test system of experiment [20] is Tyrophagus putrescentiae. In words: Insecticidal activity against Tyrophagus putrescentiae assessed as mortality at 0.5 g/m2 after 24 hr by clip method relative to control.
Experiment [21] has as its system Tyrophagus putrescentiae. In words: Insecticidal activity against Tyrophagus putrescentiae assessed as mortality at 1 g/m2 after 24 hr by clip method relative to control.
The test system of a further experiment is Trametes coccinea. In words: Antifungal activity against Pycnoporus coccineus IFO-4924 assessed as growth inhibition after 7 days by agar dilution method. The following applies: for MIC: IFO-4924, 168 h. A general note: In agar dilution the substance is mixed into plates at graded concentrations.
The subject of another experiment is Lenzites betulinus. Briefly: Antifungal activity against Lenzites betulinus IFO-4964 assessed as growth inhibition after 7 days by agar dilution method. The following applies: for MIC: IFO-4964, 168 h.
A further experiment relates to Schizophyllum commune. In words: Antifungal activity against Schizophyllum commune IFO-4928 assessed as growth inhibition after 7 days by agar dilution method. The conditions noted are these: for MIC: IFO-4928, 168 h.
In another experiment the test system is Trametes versicolor. Briefly: Antifungal activity against Trametes versicolor IFO-4940 assessed as growth inhibition after 7 days by agar dilution method. The conditions noted are these: for MIC: IFO-4940, 168 h.
A further experiment has as its system Fomitopsis dickinsii. Briefly: Antifungal activity against Daedalea dickinsii IFO-4979 assessed as growth inhibition after 7 days by agar dilution method. The following applies: for MIC: IFO-4979, 168 h.
For experiment [22], the system named is Coptotermes formosanus. In words: Insecticidal activity against Coptotermes formosanus assessed as mortality at 0.00001 g/m2 after 24 hr relative to control.
Experiment [23] deals with Coptotermes formosanus. Briefly: Insecticidal activity against Coptotermes formosanus assessed as mortality at 0.00005 g/m2 after 24 hr relative to control.
Experiment [24] relates to Coptotermes formosanus. Briefly: Insecticidal activity against Coptotermes formosanus assessed as mortality at 0.00010 g/m2 after 24 hr relative to control.
For experiment [25], the system named is Coptotermes formosanus. In words: Insecticidal activity against Coptotermes formosanus assessed as mortality at 0.00025 g/m2 after 24 hr relative to control.
Experiment [26] concerns Coptotermes formosanus. Briefly: Insecticidal activity against Coptotermes formosanus assessed as mortality at 0.00050 g/m2 after 24 hr relative to control.
The subject of experiment [27] is Coptotermes formosanus. Briefly: Insecticidal activity against Coptotermes formosanus assessed as mortality at 0.00001 g/m2 after 48 hr relative to control.
In experiment [28] the test system is Coptotermes formosanus. In words: Insecticidal activity against Coptotermes formosanus assessed as mortality at 0.00005 g/m2 after 48 hr relative to control.
Experiment [29] deals with Coptotermes formosanus. In words: Insecticidal activity against Coptotermes formosanus assessed as mortality at 0.00010 g/m2 after 48 hr relative to control.
In experiment [30] the test system is Coptotermes formosanus. In words: Insecticidal activity against Coptotermes formosanus assessed as mortality at 0.00025 g/m2 after 48 hr relative to control.
Experiment [31] has as its system Coptotermes formosanus. Briefly: Insecticidal activity against Coptotermes formosanus assessed as mortality at 0.00050 g/m2 after 48 hr relative to control.

Values after ≈ are worked out from the molar mass of the structure shown. Active and inactive are the calls of the source.

For `CC(C)c1cccc(=O)c(O)c1` [HINOKITIOL], the mortality (usually the share of the test organisms that died) in the experiment on Coptotermes formosanus [1] is listed as 50%; with Coptotermes formosanus [2], 100%; in the experiment on Coptotermes formosanus [3] it was 100%; in the experiment on Coptotermes formosanus [4] it was 100%; with Coptotermes formosanus [5], 0%; with Coptotermes formosanus [6], 40%. Besides, the mortality was determined as 10% in the experiment on Coptotermes formosanus [7]; 50% in the experiment with Coptotermes formosanus [8]; 100% in the experiment with Coptotermes formosanus [9]; 100% with Coptotermes formosanus [10]; 0% in the experiment on Coptotermes formosanus [13]; 20% in the experiment with Coptotermes formosanus [14]. In addition, the mortality in the experiment on Tyrophagus putrescentiae [15] was 0%; in the experiment with Tyrophagus putrescentiae [16], 0%; in the experiment on Tyrophagus putrescentiae [17] it was 0%; with Tyrophagus putrescentiae [18], 11.9%; in the experiment with Tyrophagus putrescentiae [19] it was 33.6%; in the experiment with Tyrophagus putrescentiae [20], 91.3%. Moreover, the mortality in the experiment with Tyrophagus putrescentiae [21] is 100%. The LC50 in the experiment with Tyrophagus putrescentiae [11] came out at 0.246 g/m2; in the experiment with Coptotermes formosanus [12], 0.07 g/m2. Besides, the minimum inhibitory concentration (MIC) (commonly the smallest concentration in the dilution series that meets the test's criterion for growth inhibition) in the experiment on Trametes coccinea is 12.5 µg/mL (≈ 76.1 µM); with Lenzites betulinus it was 12.5 µg/mL (≈ 76.1 µM); in the experiment on Schizophyllum commune it was 12.5 µg/mL (≈ 76.1 µM); with Trametes versicolor, 12.5 µg/mL (≈ 76.1 µM); in the experiment on Fomitopsis dickinsii, 0.2 µg/mL (≈ 1.22 µM).
In the case of `CCN(CC)C(=O)c1cccc(C)c1` [DIETHYLTOLUAMIDE], the LC50 in the experiment on Tyrophagus putrescentiae [11] came to 0.79 g/m2. The mortality in the experiment with Tyrophagus putrescentiae [15] was found to be 0%; in the experiment with Tyrophagus putrescentiae [16], 0%; with Tyrophagus putrescentiae [17], 0%; with Tyrophagus putrescentiae [18], 0%; in the experiment on Tyrophagus putrescentiae [19] it was 4.5%; with Tyrophagus putrescentiae [20], 18.9%. Besides, the mortality in the experiment with Tyrophagus putrescentiae [21] is given as 67.1%.
On to `CC(C)c1ccc(O)c(=O)cc1` [GAMMA-THUJAPLICIN], for which the mortality with Coptotermes formosanus [1] is recorded as 32%; in the experiment with Coptotermes formosanus [2] it was 100%; with Coptotermes formosanus [3], 100%; in the experiment with Coptotermes formosanus [4], 100%; in the experiment with Coptotermes formosanus [5], 0%; in the experiment with Coptotermes formosanus [6] it was 10%. Further, the mortality was 0% in the experiment with Coptotermes formosanus [7]; 20% with Coptotermes formosanus [8]; 100% with Coptotermes formosanus [9]; 100% in the experiment on Coptotermes formosanus [10]; 5% in the experiment on Coptotermes formosanus [13]; 11% in the experiment on Coptotermes formosanus [14]. Moreover, the mortality in the experiment with Tyrophagus putrescentiae [15] is reported as 0%; in the experiment with Tyrophagus putrescentiae [16], 51%; with Tyrophagus putrescentiae [17], 66%; in the experiment with Tyrophagus putrescentiae [18] it was 84%; with Tyrophagus putrescentiae [19], 100%; in the experiment on Tyrophagus putrescentiae [20] it was 100%. In the experiment with Tyrophagus putrescentiae [21], the mortality is 100%. Further, the LC50 in the experiment on Tyrophagus putrescentiae [11] came out at 0.02 g/m2; in the experiment on Coptotermes formosanus [12], 0.05 g/m2. The MIC in the experiment on Trametes coccinea is 25 µg/mL (≈ 152 µM); in the experiment on Lenzites betulinus it was 12.5 µg/mL (≈ 76.1 µM); with Schizophyllum commune, 12.5 µg/mL (≈ 76.1 µM); in the experiment with Trametes versicolor, 6.25 µg/mL (≈ 38.1 µM); in the experiment with Fomitopsis dickinsii, 0.2 µg/mL (≈ 1.22 µM).
Consider `C=C(C)c1cccc(=O)c(O)c1` [BETA-DOLABRIN], for which the mortality in the experiment on Coptotermes formosanus [1] was 11%; in the experiment on Coptotermes formosanus [2], 95%; in the experiment with Coptotermes formosanus [3], 100%; with Coptotermes formosanus [4], 100%; with Coptotermes formosanus [5], 0%; with Coptotermes formosanus [6] it was 0%. In addition, the mortality came to 0% in the experiment with Coptotermes formosanus [7]; 40% in the experiment with Coptotermes formosanus [8]; 100% in the experiment on Coptotermes formosanus [9]; 100% in the experiment on Coptotermes formosanus [10]; 0% in the experiment on Coptotermes formosanus [13]; 0% in the experiment with Coptotermes formosanus [14]. Besides, the mortality with Tyrophagus putrescentiae [15] stood at 0%; in the experiment with Tyrophagus putrescentiae [16] it was 31%; in the experiment on Tyrophagus putrescentiae [17] it was 91%; in the experiment on Tyrophagus putrescentiae [18], 90%; in the experiment on Tyrophagus putrescentiae [19] it was 100%; in the experiment on Tyrophagus putrescentiae [20], 100%. The mortality in the experiment with Tyrophagus putrescentiae [21] turned out to be 100%. The LC50 in the experiment with Tyrophagus putrescentiae [11] is 0.02 g/m2; with Coptotermes formosanus [12] it was 0.05 g/m2. Besides, the MIC in the experiment with Trametes coccinea came out at 25 µg/mL (≈ 154 µM); in the experiment with Lenzites betulinus, 12.5 µg/mL (≈ 77.1 µM); in the experiment with Schizophyllum commune it was 12.5 µg/mL (≈ 77.1 µM); with Trametes versicolor, 6.25 µg/mL (≈ 38.5 µM); with Fomitopsis dickinsii it was 0.2 µg/mL (≈ 1.23 µM).
As to `CCOP(=S)(OCC)Oc1nc(Cl)c(Cl)cc1Cl` [CHLORPYRIFOS], the mortality with Coptotermes formosanus [22] stood at 0%; in the experiment on Coptotermes formosanus [23] it was 10%; with Coptotermes formosanus [24] it was 25%; in the experiment on Coptotermes formosanus [25], 60%; with Coptotermes formosanus [26] it was 100%; in the experiment with Coptotermes formosanus [27], 0%. Also, the mortality with Coptotermes formosanus [28] worked out at 40%; with Coptotermes formosanus [29], 75%; with Coptotermes formosanus [30], 100%; in the experiment with Coptotermes formosanus [31], 100%. For the same molecule, in the experiment on Coptotermes formosanus [12], the LC50 came to 0.00016 g/m2.
Consider `C[C@@H]1[C@H](O)[C@@H](C)/C=C/C=C/C=C/C=C/C=C/C=C/C=C/[C@H](O[C@@H]2O[C@H](C)[C@@H](O)[C@H](N)[C@@H]2O)C[C@@H]2O[C@](O)(C[C@@H](O)C[C@@H](O)[C@H](O)CC[C@@H](O)C[C@@H](O)CC(=O)O[C@H]1C)C[C@H](O)[C@H]2C(=O)O` [AMPHOTERICIN B], for which the minimal inhibitory concentration (MIC) turned out to be 0.78 µg/mL (≈ 0.844 µM) in the experiment with Trametes coccinea; 0.39 µg/mL (≈ 0.422 µM) in the experiment with Lenzites betulinus; 0.39 µg/mL (≈ 0.422 µM) in the experiment with Schizophyllum commune; 0.39 µg/mL (≈ 0.422 µM) in the experiment with Trametes versicolor; 0.39 µg/mL (≈ 0.422 µM) in the experiment on Fomitopsis dickinsii.
For `CC(=O)Oc1cc(C(C)C)cccc1=O`, the outcome in the experiment on Tyrophagus putrescentiae [11] and with Coptotermes formosanus [12] was inactive. Moreover, the “growth inhibition (GI)” value in the experiment with Trametes coccinea, in the experiment with Lenzites betulinus, in the experiment on Schizophyllum commune, with Trametes versicolor and in the experiment with Fomitopsis dickinsii was “inactive” throughout.
